Measured values: patent US4587218A, “Novel bioconverting microorganisms” (priority 1983, dated 1986)

Assays:
[1] = tested on: Cultures ATCC 23342, ATCC 31683, CSV 558 and CUC 014; test: Sensitivity to nine antibiotics, all four cultures; assay type: cell-based, Actinoplanes missouriensis; conditions: identical pattern
Description: Temperature range, NaCl and sucrose tolerances, pH range, and antibiotic sensitivity were determined using ISP No. 2 (yeast-malt extract agar) plates. Plates were incubated at 30° C. for 14 days. The temperatures tested were 5°, 10°, 15°, 20°, 25°, 30°, 37°, 40°, 45°, 50° and 55° C.
Antibiotic sensitivity was determined using sensitivity discs padded on the surface of seeded agar plates. The following antibiotics were used: cephalothin (sodium) 30 μg, erythromycin (estolate) 15 μg, chloromycetin 30 μg, novobiocin 30 μg, penicillin (G) 10 units, rifampin 5 μg, streptomycin 10 μg, tetracycline 30 μg and vancomycin 30 μg.

[2] = tested on: mutants (ATCC 31683, CSV 558 and CUC 014); test: Buffer toxicity at pH 7.0, mutant strains; conditions: all the mutants; buffers 0.05M adjusted to pH 7.0, growth checked
[3] = tested on: wild-type strain (ATCC 23342); test: Buffer toxicity at pH 7.0, wild-type strain; conditions: buffers 0.05M adjusted to pH 7.0, growth checked

SMILES	sensitivity to nine antibiotics [1]	sensitivity to citric acid [2]	sensitivity to citric acid [3]
CO[C@@H]1[C@@H](OC(N)=O)[C@@H](O)[C@H](Oc2ccc3c(O)c(NC(=O)c4ccc(O)c(CC=C(C)C)c4)c(=O)oc3c2C)OC1(C)C [Novobiocin]	Resistance	–	–
CC1(C)S[C@@H]2[C@H](NC(=O)Cc3ccccc3)C(=O)N2[C@H]1C(=O)O [Penicillin G]	Resistance	–	–
O=C(O)CC(O)(CC(=O)O)C(=O)O [citric acid]	–	sensitive	not sensitive
